From patent publication US6586633B1, “Amine derivatives” (Pola Chemical Industries, Inc., priority 2001, dated 2003) come the findings set out here.

Common to all, as to assay: Measurement of antifungal activity (minimum inhibitory concentration), agar dilution
What all share (format): cell-based
(Agar dilution tests growth on a series of plates holding different concentrations.)

One assay concerns M. canis TIMM0760. The settings on record: Sabouraud's agar, one week at 27° C.; for MIC: Microsporum canis, 168 h, read-out: MIC value (minimum compound concentration that definitely inhibited any visible growth). On the procedure:
(§1) Measurement of Antifungal Activity (Measurement of Minimum Inhibitory Concentration)
(§2) Antifungal activity of representative compounds of the present invention against dermatophytes was investigated.
(§3) Briefly, strains of dermatophytes to be tested were grown on slant media prepared with Sabouraud's agar (product of Nissuiseiyaku; pepton 1.0%, glucose 4.0%, agar 1.5%, pH 5.9) at 27° C. for two weeks, so as to allow sufficient production of conidiospores. Subsequently, sterilized saline solution containing 0.05% (wt/vol) TWEEN 80 was added thereto, and while the surface of the each medium was scraped with a platinum loop, the conidiospores were deaggregated and suspended in the saline solution. The suspension was filtered through a double face sterilized gauze sheet so as to remove agar and hypha pellets. The filtrate was diluted with a saline solution so as to make the concentration of the conidiospores decrease to 10^6/ml by use of a cytometer, and the resultant dilute filtrate served as a test dermatophytes solution. Meanwhile, a stock solution was prepared by adding 1 ml of dimethylsulfoxide to 10 mg of a compound to be tested. An aliquot (500 μl) of the stock solution was combined with dimethylsulfoxide (500 μl), to thereby prepare a 2-fold dilute solution. Dilution was similarly repeated until 13 different dilute solutions ranging from 10 to 0.0025 mg/ml (concentrations of the ultimate test system: 100-0.025 μg/ml) were obtained. 100 μl each of the diluted solutions of the test compound was dispensed into the sterilized petri dish. A Sabouraud's agar (pepton 1.0%, glucose 4.0%, agar 1.5%, pH 5.9; 10 ml), which had been sterilized and dissolved, was added thereto, and the mixture was thoroughly mixed and solidified. Next, the above-prepared test dermatophytes solution was planted in amounts of 5 μl by use of a microplanter.

In the next assay the test system is M. gypseum IF08231. The settings on record: Sabouraud's agar, one week at 27° C.; for MIC: Nannizzia gypsea, 168 h, read-out: MIC value (minimum compound concentration that definitely inhibited any visible growth). On the procedure: as §1, §2, §3
The subject of assay [1] is T. mentagrophytes IF05811. The settings on record: Sabouraud's agar, one week at 27° C.; for MIC: Trichophyton mentagrophytes, 168 h, read-out: MIC value (minimum compound concentration that definitely inhibited any visible growth). On the procedure: as §1, §2, §3
The test system of assay [2] is T. mentagrophytes IF07552. The settings on record: Sabouraud's agar, one week at 27° C.; for MIC: Trichophyton mentagrophytes, 168 h, read-out: MIC value (minimum compound concentration that definitely inhibited any visible growth). As to the method: as §1, §2, §3
For assay [3], the system named is T. mentagrophytes TIMM1177. The settings on record: Sabouraud's agar, one week at 27° C.; for MIC: Trichophyton mentagrophytes, 168 h, read-out: MIC value (minimum compound concentration that definitely inhibited any visible growth). As to the method:
as §1, §2, §3

In assay [4] the test system is T. mentagrophytes TIMM1189. The settings on record: Sabouraud's agar, one week at 27° C.; for MIC: Trichophyton mentagrophytes, 168 h, read-out: MIC value (minimum compound concentration that definitely inhibited any visible growth). As to the method:
as §1, §2, §3

Another assay concerns T. rubrum IF05808. As to conditions: Sabouraud's agar, one week at 27° C.; for MIC: Trichophyton rubrum, 168 h, read-out: MIC value (minimum compound concentration that definitely inhibited any visible growth). As to the method: as §1, §2, §3
A further assay has as its system T. rubrum IF09185. As to conditions: Sabouraud's agar, one week at 27° C.; for MIC: Trichophyton rubrum, 168 h, read-out: MIC value (minimum compound concentration that definitely inhibited any visible growth). On the procedure: as §1, §2, §3
The next assay deals with T. violaceum TIMM1264. The settings on record: Sabouraud's agar, one week at 27° C.; for MIC: Trichophyton violaceum, 168 h, read-out: MIC value (minimum compound concentration that definitely inhibited any visible growth). On the procedure:
as §1, §2, §3

Read-outs that look alike come from different tables or passages of the source.

For the molecule `C=C(C)c1cccc(CN(C)C/C=C/C#CC(C)(C)C)c1.Cl` [Compound 3, trans-N-(6,6-Dimethyl-2-hepten-4-ynyl)-N-methyl-(3-isopropenylbenzyl)amine Hydrochloride], the MIC came out at 0.1 µg/mL with M. canis TIMM0760; 0.39 µg/mL with M. gypseum IF08231 (H. gypseum IF08231 (Table 1)); 0.1 µg/mL in assay [1]; 0.2 µg/mL in assay [2]; 0.1 µg/mL in [3]; 0.2 µg/mL in assay [4]. The MIC in the assay on T. rubrum IF05808, with T. rubrum IF09185 and with T. violaceum TIMM1264 was 0.1 µg/mL each time.

As for `C=Cc1cccc(CN(C)C/C=C/C#CC(C)(C)C)c1.Cl` [Compound 10, trans-N-(6,6-Dimethyl-2-hepten-4-ynyl)-N-methyl-(3-vinylbenzyl)amine Hydrochloride], the MIC in the assay with M. canis TIMM0760 worked out at 0.2 µg/mL; in the assay on M. gypseum IF08231 (H. gypseum IF08231 (Table 1)) it was 0.78 µg/mL; in [1] it was 0.39 µg/mL; in assay [2], 0.39 µg/mL; in assay [3], 0.39 µg/mL; in assay [4], 0.39 µg/mL. The MIC in the assay on T. rubrum IF05808 turned out to be 0.39 µg/mL; with T. rubrum IF09185, 0.39 µg/mL; in the assay with T. violaceum TIMM1264 it was 0.78 µg/mL.

Regarding `CC(C)=Cc1cccc(CN(C)C/C=C/C#CC(C)(C)C)c1.Cl` [Compound 12, trans-N-(6,6-Dimethyl-2-hepten-4-ynyl)-N-methyl-[3-(2-methyl-1-propenyl)benzyl]amine Hydrochloride], the MIC worked out at 0.2 µg/mL with M. canis TIMM0760; 0.78 µg/mL with M. gypseum IF08231 (H. gypseum IF08231 (Table 1)); 0.39 µg/mL in [1]; 0.39 µg/mL in assay [2]; 0.78 µg/mL in assay [3]; 0.39 µg/mL in assay [4]. The MIC came out at 0.39 µg/mL in the assay with T. rubrum IF05808, 0.2 µg/mL in the assay with T. rubrum IF09185 and 0.39 µg/mL in the assay on T. violaceum TIMM1264.

Take `C=C(C)c1cc(C)cc(CN(C)C/C=C/C#CC(C)(C)C)c1.Cl` [Compound 19, trans-N-(6,6-Dimethyl-2-hepten-4-ynyl)-N-methyl-(3-isopropenyl-5-methylbenzyl)amine Hydrochloride]: the MIC in the assay on M. canis TIMM0760 turned out to be 0.1 µg/mL; in the assay on M. gypseum IF08231 (H. gypseum IF08231 (Table 1)), 0.2 µg/mL; in [1], 0.1 µg/mL; in assay [2], 0.05 µg/mL; in assay [3] it was 0.1 µg/mL; in assay [4], 0.05 µg/mL. Besides, the MIC in the assay with T. rubrum IF05808, in the assay with T. rubrum IF09185 and with T. violaceum TIMM1264 was 0.1 µg/mL in each case.

Consider `C=C(CC)c1cccc(CN(C)C/C=C/C#CC(C)(C)C)c1.Cl` [Compound 25, trans-N-(6,6-Dimethyl-2-hepten-4-ynyl)-N-methyl-[3-(1-ethylvinyl)benzyl]amine Hydrochloride], for which the MIC in the assay on M. canis TIMM0760 stood at 0.39 µg/mL; in the assay with M. gypseum IF08231 (H. gypseum IF08231 (Table 1)), 3.12 µg/mL; in assay [1] it was 0.78 µg/mL; in [2], 0.78 µg/mL; in assay [3] it was 0.78 µg/mL; in assay [4], 0.78 µg/mL. For the same molecule, the MIC in the assay on T. rubrum IF05808, in the assay with T. rubrum IF09185 and in the assay with T. violaceum TIMM1264 was 0.78 µg/mL each time.

Take `C/C=C(/C)c1cccc(CN(C)C/C=C/C#CC(C)(C)C)c1.Cl` [Compound 27, trans-, cis-N-(6,6-Dimethyl-2-hepten-4-ynyl)-N-methyl-[3-(1-methyl-1-propenyl)benzyl]amine Hydrochloride]: the “MIC value (minimum compound concentration that definitely inhibited any visible growth)” value in the assay with M. canis TIMM0760 turned out to be 0.78 µg/mL; against M. gypseum IF08231 (H. gypseum IF08231 (Table 1)), 6.25 µg/mL; in assay [1], 1.56 µg/mL; in [2] it was 1.56 µg/mL; in [3], 1.56 µg/mL; in assay [4], 1.56 µg/mL. For the same molecule, the “MIC value (minimum compound concentration that definitely inhibited any visible growth)” value in the assay with T. rubrum IF05808, in the assay on T. rubrum IF09185 and against T. violaceum TIMM1264 was 1.56 µg/mL throughout.

In the case of `C=C(C)c1ccccc1CN(C)C/C=C/C#CC(C)(C)C.Cl` [Compound 39, trans-N-(6,6-Dimethyl-2-hepten-4-ynyl)-N-methyl-(2-isopropenylbenzyl)amine Hydrochloride], the MIC with M. canis TIMM0760 stood at 6.25 µg/mL; in the assay with M. gypseum IF08231 (H. gypseum IF08231 (Table 1)) it was 12.5 µg/mL; in [1], 6.25 µg/mL; in assay [2] it was 6.25 µg/mL; in assay [3], 6.25 µg/mL; in [4] it was 6.25 µg/mL. The MIC worked out at 3.12 µg/mL with T. rubrum IF05808, 3.12 µg/mL in the assay with T. rubrum IF09185 and 12.5 µg/mL in the assay on T. violaceum TIMM1264.

Take `C=C(C)c1cccc(CN(CC)C/C=C/C#CC(C)(C)C)c1.Cl` [Compound 45, trans-N-(6,6-Dimethyl-2-hepten-4-ynyl)-N-ethyl-(3-isopropenylbenzyl)amine Hydrochloride]: the MIC in the assay with M. canis TIMM0760 was determined as 0.2 µg/mL; in the assay with M. gypseum IF08231 (H. gypseum IF08231 (Table 1)) it was 0.39 µg/mL; in assay [1], 0.39 µg/mL; in assay [2] it was 0.39 µg/mL; in assay [3], 0.39 µg/mL; in [4] it was 0.39 µg/mL. The MIC in the assay on T. rubrum IF05808, with T. rubrum IF09185 and in the assay on T. violaceum TIMM1264 was 0.39 µg/mL each time.

For the molecule `C=C(C)c1cccc(CN(C)CC=Cc2ccccc2)c1.Cl` [Compound 48, N-Cinnamyl-N-methyl-(3-isopropenylbenzyl)amine Hydrochloride], the MIC is 1.56 µg/mL in the assay with M. canis TIMM0760; 6.25 µg/mL with M. gypseum IF08231 (H. gypseum IF08231 (Table 1)); 6.25 µg/mL in [1]; 3.12 µg/mL in assay [2]; 6.25 µg/mL in assay [3]; 6.25 µg/mL in assay [4]. The MIC in the assay on T. rubrum IF05808 was determined as 1.56 µg/mL; with T. rubrum IF09185, 1.56 µg/mL; in the assay on T. violaceum TIMM1264, 6.25 µg/mL.

For `C=C(C)c1cccc(CN(C)C/C=C/C#CC(C)(C)C)c1C.Cl` [Compound 52, trans-N-(6,6-Dimethyl-2-hepten-4-ynyl)-N-methyl-(3-isopropenyl-2-methylbenzyl)amine Hydrochloride], the MIC came to 3.12 µg/mL with M. gypseum IF08231 (H. gypseum IF08231 (Table 1)); 12.5 µg/mL in assay [1]; 12.5 µg/mL in [2]; 12.5 µg/mL in assay [3]; 12.5 µg/mL in [4]; 12.5 µg/mL with T. rubrum IF05808. Further, the MIC in the assay with T. rubrum IF09185 and with T. violaceum TIMM1264 was 12.5 µg/mL each time.

For the molecule `C=C(C)c1cc(F)cc(CN(C)C/C=C/C#CC(C)(C)C)c1.Cl` [Compound 64, trans-N-(6,6-Dimethyl-2-hepten-4-ynyl)-N-methyl-(3-fluoro-5-isopropenylbenzyl)amine Hydrochloride], the MIC is 0.2 µg/mL in the assay with M. canis TIMM0760; 0.39 µg/mL in the assay on M. gypseum IF08231 (H. gypseum IF08231 (Table 1)); 0.1 µg/mL in [1]; 0.1 µg/mL in [2]; 0.1 µg/mL in assay [3]; 0.1 µg/mL in assay [4]. The MIC was determined as 0.1 µg/mL with T. rubrum IF05808, 0.1 µg/mL with T. rubrum IF09185 and 0.2 µg/mL with T. violaceum TIMM1264.

Take `C=C(C)c1cc(CN(C)C/C=C/C#CC(C)(C)C)ccc1C.Cl` [Compound 74, trans-N-(6,6-Dimethyl-2-hepten-4-ynyl)-N-methyl-(3-isopropenyl-4-methylbenzyl)amine Hydrochloride]: the MIC in the assay with M. canis TIMM0760 came to 1.56 µg/mL; in the assay with M. gypseum IF08231 (H. gypseum IF08231 (Table 1)), 12.5 µg/mL; in assay [1], 6.25 µg/mL; in assay [2] it was 12.5 µg/mL; in assay [3], 12.5 µg/mL; in assay [4] it was 6.25 µg/mL. The values for the MIC with T. rubrum IF05808, with T. rubrum IF09185 and with T. violaceum TIMM1264 were 1.56 µg/mL, 3.12 µg/mL and 6.25 µg/mL, respectively.

Take `C=C(C)c1cccc(CN(C)Cc2ccc(C(C)(C)C)cc2)c1.Cl` [Compound 77, N-(4-tert-Butylbenzyl)-N-methyl-(3-isopropenylbenzyl)amine Hydrochloride]: the MIC stood at 0.2 µg/mL in the assay on M. canis TIMM0760; 0.39 µg/mL with M. gypseum IF08231 (M. gypseum IF08231 (Table 2)); 0.39 µg/mL in assay [1]; 0.1 µg/mL in assay [2]; 0.2 µg/mL in [3]; 0.2 µg/mL in [4]. The results for the MIC with T. rubrum IF05808, with T. rubrum IF09185 and in the assay on T. violaceum TIMM1264 were 0.1 µg/mL, 0.1 µg/mL and 0.2 µg/mL, respectively.
